In ChEMBL document CHEMBL1126964, “Antibacterial activity of long-chain alcohols: the role of hydrophobic alkyl groups” (1993):
Converted amounts (≈) assume the structure as drawn.

Columns and labels:
Staphylococcus aureus = test: Minimum inhibitory concentration against Staphylococcus aureus was determined; type: functional
Cutibacterium acnes = test: Minimum inhibitory concentration against Propionibacterium acnes was determined; type: functional

SMILES	MIC (Staphylococcus aureus) [µg/mL]	MIC (Cutibacterium acnes) [µg/mL]
CCCCCCCCCCCCCO [TRIDECAN-1-OL]	> 800	1.56 (≈ 7.79 µM)
CCCCCCCCCCCO [UNDECANOL]	25 (≈ 145 µM)	12.5 (≈ 72.5 µM)
CC(C)=CCC/C(C)=C/CC/C(C)=C/CCC(C)O (stereo not given)	> 800	1.56 (≈ 5.9 µM)
CCCCCCCCCCCCCCCCO [CETYL ALCOHOL]	> 800	0.78 (≈ 3.22 µM)
CC(C)=CCC/C(C)=C/CO [GERANIOL]	800 (≈ 5190 µM)	400 (≈ 2590 µM)
C=CC(C)(O)CCC=C(C)C (stereo not given) [LINALOOL]	> 800	> 800
CCCCCCCCCCCCCCCO	> 800	0.78 (≈ 3.41 µM)
CCCCCCCCO [OCTANOL]	800 (≈ 6140 µM)	200 (≈ 1540 µM)
CCCCCCCCCCCCCCCCCO	> 800	> 800
CCCCCCCO [1-HEPTANOL]	> 800	400 (≈ 3440 µM)
CCCCCCCCCCCCCCCCCCCCO [1-EICOSANOL]	> 800	> 800
CC(C)=CCC/C(C)=C/CC/C(C)=C/CO [FARNESOL]	6.25 (≈ 28.1 µM)	6.25 (≈ 28.1 µM)
CCCCCCCCCCCCCCO [MYRISTYL ALCOHOL]	> 800	1.56 (≈ 7.28 µM)
CCCCCCCCCCO [DECANOL]	50 (≈ 316 µM)	25 (≈ 158 µM)
CC(C)=CCC/C(C)=C/CCC(C)O (stereo not given)	50 (≈ 255 µM)	25 (≈ 127 µM)
CCCCCCCCCCCCO [DODECANOL]	6.25 (≈ 33.5 µM)	3.13 (≈ 16.8 µM)
CCCCCCO [1-HEXANOL]	> 800	> 800
CCCCCCCCCCCCCCCCCCO [CETOSTEARYL ALCOHOL]	> 800	> 800
C=CC(C)(O)CC/C=C(\C)CCC=C(C)C (stereo not given) [NEROLIDOL]	50 (≈ 225 µM)	25 (≈ 112 µM)
CCCCCCCCCO [NONANOL]	200 (≈ 1390 µM)	100 (≈ 693 µM)
